Results taken from US20230079819A1, “COMPOUNDS AND USES THEREOF” (Foghorn Therapeutics Inc., priority 2019, published 2023).

How the values were obtained:
BRM = molecular target: T1, BRM (Homo sapiens, UniProt P51531); assay: ATPase catalytic activity of BRM, ADP-Glo in vitro biochemical assay; conditions: ATPase catalytic activity, 30 nM BRM, 400 μM ATP, read-out: BRM IP50
T1 construct: made in house; host or cells: High Five insect cells

BRG-1 = molecular target: T2, BRG-1 (Homo sapiens, UniProt P51532); assay: ATPase catalytic activity of BRG-1, ADP-Glo in vitro biochemical assay; conditions: ATPase catalytic activity, 30 nM BRG-1, 400 μM ATP, read-out: BRG1 IP50
T2 construct: made in house; host or cells: High Five insect cells
T2 sequence (P51532 whole entry): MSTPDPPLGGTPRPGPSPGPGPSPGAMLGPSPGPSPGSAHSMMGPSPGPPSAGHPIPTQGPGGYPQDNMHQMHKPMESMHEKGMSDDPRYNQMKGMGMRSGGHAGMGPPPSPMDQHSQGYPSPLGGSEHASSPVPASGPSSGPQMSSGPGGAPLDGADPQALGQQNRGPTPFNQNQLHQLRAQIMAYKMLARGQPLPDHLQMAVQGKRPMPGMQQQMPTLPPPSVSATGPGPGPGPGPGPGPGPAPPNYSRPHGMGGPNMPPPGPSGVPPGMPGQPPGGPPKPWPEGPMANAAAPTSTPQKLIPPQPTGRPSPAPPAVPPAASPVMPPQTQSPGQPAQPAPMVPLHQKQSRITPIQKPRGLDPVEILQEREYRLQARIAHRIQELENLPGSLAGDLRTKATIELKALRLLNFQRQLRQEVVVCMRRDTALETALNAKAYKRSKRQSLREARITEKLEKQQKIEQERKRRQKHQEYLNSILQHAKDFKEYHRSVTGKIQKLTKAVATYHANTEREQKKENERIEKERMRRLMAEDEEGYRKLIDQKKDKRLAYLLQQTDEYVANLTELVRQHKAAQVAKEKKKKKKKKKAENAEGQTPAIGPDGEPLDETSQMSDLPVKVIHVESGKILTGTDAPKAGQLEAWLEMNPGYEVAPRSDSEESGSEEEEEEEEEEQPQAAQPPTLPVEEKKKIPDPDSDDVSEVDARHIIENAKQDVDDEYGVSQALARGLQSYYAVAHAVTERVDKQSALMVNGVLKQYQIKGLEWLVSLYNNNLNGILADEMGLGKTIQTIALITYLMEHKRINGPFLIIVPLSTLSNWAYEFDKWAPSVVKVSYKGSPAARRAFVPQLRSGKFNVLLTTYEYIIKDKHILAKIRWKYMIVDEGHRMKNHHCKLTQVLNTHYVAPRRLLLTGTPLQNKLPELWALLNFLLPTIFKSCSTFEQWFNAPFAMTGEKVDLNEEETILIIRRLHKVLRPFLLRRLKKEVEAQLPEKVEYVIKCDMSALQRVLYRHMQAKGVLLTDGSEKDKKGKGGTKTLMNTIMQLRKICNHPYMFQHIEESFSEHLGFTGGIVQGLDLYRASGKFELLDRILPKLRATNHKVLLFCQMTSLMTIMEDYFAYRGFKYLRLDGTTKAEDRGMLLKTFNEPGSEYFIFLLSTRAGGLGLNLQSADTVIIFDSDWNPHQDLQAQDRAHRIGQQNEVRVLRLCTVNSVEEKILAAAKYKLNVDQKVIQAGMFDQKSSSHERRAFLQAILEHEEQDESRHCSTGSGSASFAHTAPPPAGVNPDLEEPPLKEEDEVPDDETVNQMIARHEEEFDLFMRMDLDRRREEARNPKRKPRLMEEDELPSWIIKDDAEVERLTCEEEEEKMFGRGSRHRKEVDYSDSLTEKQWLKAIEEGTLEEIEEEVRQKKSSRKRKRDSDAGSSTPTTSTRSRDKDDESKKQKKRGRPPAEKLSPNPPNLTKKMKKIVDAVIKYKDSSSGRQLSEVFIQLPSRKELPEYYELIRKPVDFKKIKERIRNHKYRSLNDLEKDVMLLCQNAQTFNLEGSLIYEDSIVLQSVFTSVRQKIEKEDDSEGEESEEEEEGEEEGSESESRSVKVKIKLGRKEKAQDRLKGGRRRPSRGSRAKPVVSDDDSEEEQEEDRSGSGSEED

T1 sequence (P51531 whole entry): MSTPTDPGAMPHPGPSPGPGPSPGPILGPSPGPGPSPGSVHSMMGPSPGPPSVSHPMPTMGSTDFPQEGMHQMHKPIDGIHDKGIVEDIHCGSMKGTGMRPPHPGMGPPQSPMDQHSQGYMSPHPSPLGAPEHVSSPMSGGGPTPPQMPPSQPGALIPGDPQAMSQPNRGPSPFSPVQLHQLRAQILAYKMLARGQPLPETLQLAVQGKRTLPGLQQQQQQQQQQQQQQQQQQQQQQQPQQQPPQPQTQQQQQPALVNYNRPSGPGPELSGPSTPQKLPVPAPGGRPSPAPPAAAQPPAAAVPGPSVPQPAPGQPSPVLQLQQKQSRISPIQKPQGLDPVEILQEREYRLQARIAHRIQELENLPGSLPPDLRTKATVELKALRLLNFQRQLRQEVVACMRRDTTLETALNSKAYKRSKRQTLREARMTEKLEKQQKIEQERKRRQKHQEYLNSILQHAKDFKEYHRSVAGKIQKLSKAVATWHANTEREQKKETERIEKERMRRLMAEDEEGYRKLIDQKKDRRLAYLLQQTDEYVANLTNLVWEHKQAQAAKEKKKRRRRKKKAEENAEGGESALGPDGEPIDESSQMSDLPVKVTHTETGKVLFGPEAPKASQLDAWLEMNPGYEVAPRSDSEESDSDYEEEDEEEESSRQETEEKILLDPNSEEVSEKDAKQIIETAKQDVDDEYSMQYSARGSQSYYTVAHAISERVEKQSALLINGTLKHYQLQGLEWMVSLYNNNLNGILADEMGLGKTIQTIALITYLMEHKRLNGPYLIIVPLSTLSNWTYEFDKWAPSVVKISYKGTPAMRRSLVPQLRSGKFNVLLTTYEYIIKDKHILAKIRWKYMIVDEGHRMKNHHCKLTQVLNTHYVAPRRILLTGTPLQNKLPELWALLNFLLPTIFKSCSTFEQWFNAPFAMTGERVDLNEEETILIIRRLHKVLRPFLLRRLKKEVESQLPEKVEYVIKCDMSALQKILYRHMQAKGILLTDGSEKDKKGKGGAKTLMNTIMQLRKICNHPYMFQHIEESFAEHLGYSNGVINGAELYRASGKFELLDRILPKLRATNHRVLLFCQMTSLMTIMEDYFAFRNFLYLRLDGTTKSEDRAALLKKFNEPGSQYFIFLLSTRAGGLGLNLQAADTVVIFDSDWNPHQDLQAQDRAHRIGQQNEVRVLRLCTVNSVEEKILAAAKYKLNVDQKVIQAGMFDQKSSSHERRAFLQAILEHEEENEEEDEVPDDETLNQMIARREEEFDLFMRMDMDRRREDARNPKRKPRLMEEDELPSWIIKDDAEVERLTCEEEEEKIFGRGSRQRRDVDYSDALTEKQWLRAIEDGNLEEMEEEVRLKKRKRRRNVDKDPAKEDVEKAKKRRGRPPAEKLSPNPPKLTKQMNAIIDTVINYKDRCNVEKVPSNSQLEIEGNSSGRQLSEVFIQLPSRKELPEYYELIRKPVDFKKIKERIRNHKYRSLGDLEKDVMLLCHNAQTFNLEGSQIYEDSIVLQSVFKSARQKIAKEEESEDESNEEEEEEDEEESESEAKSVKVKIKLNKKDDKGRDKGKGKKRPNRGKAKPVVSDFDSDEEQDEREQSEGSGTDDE

| SMILES | IC50 (BRM) [nM] | IC50 (BRG-1) [nM] |
| --- | --- | --- |
| C[C@@H]1Cc2ccc(-c3csc(NC(=O)CNC(=O)c4ccn(S(C)(=O)=O)c4)n3)cc2O1 [Compound 517] | > 10 | > 10 |
| CS(=O)(=O)n1ccc(C(=O)NCC(=O)Nc2nc(-c3cc(F)cc(N4CCC4)c3)cs2)c1 [Compound 518] | < 10 | < 10 |
| CC1(n2ccc(C(=O)NCC(=O)Nc3nc(-c4cc(F)cc(N5CCC5)c4)cs3)c2)COC1 [Compound 519] | > 10 | > 10 |
| C[C@@H]1CN(c2cccc(-c3nc(NC(=O)CNC(=O)c4ccn(C(C)(C)C)c4)sc3F)n2)C[C@H](C)O1 [Compound 520, 1-(tert-butyl)-N-(2-((4-(6-(cis-2,6-dimethylmorpholino)pyridin-2-yl)-5-fluorothiazol-2-yl)amino)-2-oxoethyl)-1H-pyrrole-3-carboxamide] | > 10 | > 100 |
| N#CC1(n2ccc(C(=O)NCC(=O)Nc3nc(-c4cc(F)cc(N5CCC5)c4)cs3)c2)CC1 [Compound 521] | < 10 | > 10 |
| N#CC1(n2ccc(C(=O)NCC(=O)Nc3nc(-c4cccc(OC(F)F)n4)cs3)c2)CC1 [Compound 522] | > 100 | > 100 |
| Cc1cncc(-c2cccc(-c3csc(NC(=O)CNC(=O)c4ccn(C5(C)COC5)c4)n3)n2)n1 [Compound 523, 1-(3-methyloxetan-3-yl)-N-[2-[[4-[6-(6-methylpyrazin-2-yl)-2-pyridyl]thiazol-2-yl]amino]-2-oxo-ethyl]pyrrole-3-carboxamide] | > 10 | > 10 |
| N#CC1(n2ccc(C(=O)NCC(=O)Nc3nc(-c4cccc(N5CCC5)c4F)cs3)c2)CC1 [Compound 524] | < 10 | > 10 |
| CC1(n2ccc(C(=O)NCC(=O)Nc3nc(-c4cccc(N5CCC5)c4F)cs3)c2)COC1 [Compound 525] | > 10 | > 10 |
| COC[C@H](NC(=O)c1ccn(C2(C#N)CC2)c1)C(=O)Nc1nc(-c2ccc3ccn(C)c(=O)c3c2)cs1 [Compound 526] | > 10 | > 10 |
| C[C@H]1Cc2ccc(-c3csc(NC(=O)CNC(=O)c4ccn(S(C)(=O)=O)c4)n3)cc2O1 [Compound 527] | > 10 | > 10 |
| N#CC1(n2ccc(C(=O)NCC(=O)Nc3nc(-c4cccc(OCC5(F)COC5)c4)cs3)c2)CC1 [Compound 528] | > 100 | > 100 |
| Cc1cncc(-c2cccc(-c3csc(NC(=O)CNC(=O)c4ccn(C5(C)COC5)c4)n3)c2)n1 [Compound 529] | < 10 | > 10 |
| CO[C@H]1C[C@H](c2cccc(-c3csc(NC(=O)CNC(=O)c4ccn(S(C)(=O)=O)c4)n3)c2)C1 [Compound 530] | > 10 | > 10 |
| CO[C@H]1C[C@H](c2ccc(-c3csc(NC(=O)CNC(=O)c4ccn(S(C)(=O)=O)c4)n3)cc2)C1 [Compound 531] | > 10 | > 10 |
| C[C@H](NC(=O)c1ccn(C2(C#N)CC2)c1)C(=O)Nc1nc(-c2ccc3ccn(C)c(=O)c3c2)cs1 [Compound 532] | > 10 | > 10 |
| CS(=O)(=O)n1ccc(C(=O)NCC(=O)Nc2nc(-c3cccc(N4CCC(C(F)F)CC4)c3)cs2)c1 [Compound 543] | > 10 | > 10 |
| CS(=O)(=O)n1ccc(C(=O)NCC(=O)Nc2nc(-c3cc(F)c4c(c3)CCO4)cs2)c1 [Compound 544] | < 10 | < 10 |
| COC[C@H](NC(=O)c1ccn(S(C)(=O)=O)c1)C(=O)Nc1nc(-c2ccc(F)c(OC3CC3)c2)cs1 [Compound 545] | > 10 | > 100 |
| CN1CCOc2c(F)cc(-c3csc(NC(=O)CNC(=O)c4ccn(S(C)(=O)=O)c4)n3)cc21 [Compound 546] | < 10 | < 10 |
| CC(C)(C)n1ccc(C(=O)NCC(=O)Nc2nc(-c3cccc(OC4CC4)c3F)cs2)c1 [Compound 547] | > 10 | > 100 |
| CC1(n2ccc(C(=O)NCC(=O)Nc3nc(-c4cccc(OC5CC5)c4F)cs3)c2)COC1 [Compound 548] | > 100 | > 100 |
| COC[C@H](NC(=O)c1ccn(S(C)(=O)=O)c1)C(=O)Nc1nc(-c2ccc(F)c(N3CCC3)c2)cs1 [Compound 549] | < 10 | > 10 |

More lines, now with the values ahead:

| IC50 (BRM) [nM] | IC50 (BRG-1) [nM] | SMILES |
| --- | --- | --- |
| > 10 | > 10 | COC[C@H](NC(=O)c1ccn(C(C)(C)C)c1)C(=O)Nc1nc(-c2ccc3c(=O)n(C)ccc3c2)cs1 [Compound 551] |
| > 10 | > 10 | CS(=O)(=O)n1ccc(C(=O)NCC(=O)Nc2nc(-c3cccc(N4CC[C@H](N)C(F)(F)C4)c3)cs2)c1 [Compound 552] |
| > 10 | > 10 | N#CC1(n2ccc(C(=O)NCC(=O)Nc3nc(-c4cccc(OC(F)(F)F)c4)cs3)c2)CC1 [Compound 553] |
| > 10 | > 100 | N#CC1(n2ccc(C(=O)NCC(=O)Nc3nc(-c4cccc(OC5CC5)c4)cs3)c2)CC1 [Compound 554, 1-(1-cyanocyclopropyl)-N-[2-[[4-[3-(cyclopropoxy)phenyl]thiazol-2-yl]amino]-2-oxo-ethyl]pyrrole-3-carboxamide] |
| > 10 | > 10 | N#CC1(n2ccc(C(=O)NCC(=O)Nc3nc(-c4cc(F)cc(OC5CC5)c4)cs3)c2)CC1 [Compound 555] |
| > 10 | > 100 | N#CC1(n2ccc(C(=O)NCC(=O)Nc3nc(-c4cccc(OC5CC5)c4F)cs3)c2)CC1 [Compound 556] |
| > 10 | > 10 | COC[C@H](NC(=O)c1ccn(S(C)(=O)=O)c1)C(=O)Nc1nc(-c2cccc(N3CCC(C(F)F)CC3)c2)cs1 [Compound 557, (S)—N-(1-((4-(3-(4-(difluoromethyl)piperidin-1-yl)phenyl)thiazol-2-yl)amino)-3-methoxy-1-oxopropan-2-yl)-1-(methylsulfonyl)-1H-pyrrole-3-carboxamide] |
| < 10 | < 10 | CS(=O)(=O)n1ccc(C(=O)NCC(=O)Nc2nc(-c3cccc(N4CC[C@@H](N)C(F)(F)C4)c3)cs2)c1 [Compound 558] |
| > 100 | > 100 | N#CC1(n2ccc(C(=O)NCC(=O)Nc3nc(-c4cccc(OC5CC5)n4)cs3)c2)CC1 [Compound 559] |
| > 10 | > 10 | C[C@@H]1CN(c2cccc(-c3csc(NC(=O)[C@H](C)NC(=O)c4ccn(C5(C#N)CC5)c4)n3)n2)C[C@H](C)O1 [Compound 560] |
| < 10 | < 10 | COC[C@H](NC(=O)c1ccn(C(C)(C)C)c1)C(=O)Nc1nc(-c2ccc3c(F)cn(C)c(=O)c3c2)cs1 [Compound 561] |
| < 10 | > 10 | Cn1ccc(-c2cccc(-c3csc(NC(=O)CNC(=O)c4ccn(C(C)(C)C#N)c4)n3)c2)n1 [Compound 562] |
| < 10 | < 10 | COC[C@H](NC(=O)c1ccn(C(C)(C)C)c1)C(=O)Nc1nc(-c2cc(F)c3ccn(C)c(=O)c3c2)cs1 [Compound 563] |
| < 10 | < 10 | COC[C@H](NC(=O)c1ccn(C2(C)COC2)c1)C(=O)Nc1nc(-c2cc(F)c3ccn(C)c(=O)c3c2)cs1 [Compound 564] |
| > 10 | > 10 | CN1CCc2c(F)ccc(-c3csc(NC(=O)CNC(=O)c4ccn(S(C)(=O)=O)c4)n3)c21 [Compound 565] |
